Consider 16 molecules from patent US20070287699A1, “ANTIVIRAL AGENTS” (ViroBay, Inc., priority 2006, published 2007).

The test has as its system HCV replicon RNA replication in human Huh7 hepatoma cells. The test can be described thus: HCV replicon assay (activity levels from either or both of HCV replicon assay 1, Huh7/Clone A RT-qPCR, and assay 2, Huh7 ET luc-ubi-neo/ET). Format: cell-based, Hepatitis C virus (HCV). To be noted: 48 hours, 72 hours, Luc activity or RT-PCR, read-out: inhibit HCV replication at IC50 levels or estimated IC50 levels. The gist of the method: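 Huh7/Clone A subgenomic replicon cells treated 48 h at 37° C. with 7 serial dilutions in triplicate (0.5% DMSO final). Replicon RNA measured by TaqMan RT-qPCR on the neo gene, normalized to RiboGreen total RNA; untreated cells set as 100% for IC50.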

Setting [1] is: Hepatitis C virus, Huh-7, either or both HCV replicon assays: Huh7/Clone A.

Where two headings read alike, the source gives them in different places.

For `O=c1c(-c2noc(Cc3ccc(Cl)cc3)n2)cn(Cc2ccc(C(F)(F)F)cc2F)c2c1CNCC2` [Compound 178, 3-[5-(4-chloro-benzyl)-[1,2,4]oxadiazol-3-yl]-1-(2-fluoro-4-trifluoromethyl-benzyl)-5,6,7,8-tetrahydro-1H-[1,6]naphthyridin-4-one], the IC50 under setting [1] is under 10 µM. For the molecule `CN1CCN(c2cc3c(cc2F)c(=O)c(-c2noc(C(C)(C)c4ccccc4)n2)cn3Cc2cccc(C(F)(F)F)c2)CC1` [Compound 98, 6-fluoro-3-[5-(1-methyl-1-phenyl-ethyl)-[1,2,4]oxadiazol-3-yl]-7-(4-methyl-piperazin-1-yl)-1-(3-trifluoromethyl-benzyl)-1H-quinolin-4-one], the concentration for half-maximal inhibition (IC50) under setting [1] is under 0.5 µM. For `CN1CCN(c2cc3c(cc2F)c(=O)c(-c2noc(Cc4ccc(F)cc4)n2)cn3Cc2c(F)cccc2F)CC1` [Compound 49, 1-(2,6-difluoro-benzyl)-6-fluoro-3-[5-(4-fluoro-benzyl)-[1,2,4]oxadiazol-3-yl]-7-(4-methyl-piperazin-1-yl)-1H-quinolin-4-one], the half-inhibitory concentration (IC50) under setting [1] is under 10 µM. For `CNc1cc2c(cc1F)c(=O)c(-c1noc(Cc3ccccc3)n1)cn2Cc1ccc(C(F)(F)F)cc1F` [Compound 55, 3-(5-Benzyl-[1,2,4]oxadiazol-3-yl)-6-fluoro-1-(2-fluoro-4-trifluoromethyl-benzyl)-7-methylamino-1H-quinolin-4-one], the half-maximal inhibitory concentration (IC50) under setting [1] was over 10 µM. Consider `CN1CCN(c2cc3c(cc2F)c(=O)c(-c2noc(C(CCC(N)=O)c4ccccc4)n2)cn3Cc2ccc(Cl)cc2)CC1` (stereo not shown) [Compound 67, 4-{3-[1-(4-chloro-benzyl)-6-fluoro-7-(4-methyl-piperazin-1-yl)-4-oxo-1,4-dihydro-quinolin-3-yl]-[1,2,4]oxadiazol-5-yl}-4-phenyl-butyramide], for which, under setting [1], the IC50 is under 10 µM.

Turning to `CC(C)(c1ccccc1)c1nc(-c2cn(Cc3ccc(C(F)(F)F)cc3)c3cc(N4CCNC(=O)C4)c(F)cc3c2=O)no1` [Compound 126, 6-fluoro-7-(3-oxopiperazin-1-yl)-3-(5-(2-phenylpropan-2-yl)-1,2,4-oxadiazol-3-yl)-1-(4-(trifluoromethyl)benzyl)quinolin-4(1H)-one], the IC50 under setting [1] was under 0.5 µM. Take `CN1CCN(c2cc3c(cc2F)c(=O)c(-c2noc(Cc4ccccc4)n2)cn3Cc2ccc(C(F)(F)F)cc2F)CC1` [Compound 35, 3-(5-benzyl-[1,2,4]oxadiazol-3-yl)-6-fluoro-1-(2-fluoro-4-trifluoromethyl-benzyl)-7-(4-methyl-piperazin-1-yl)-1H-quinolin-4-one]: the IC50 (either or both HCV replicon assays: Huh7/Clone A) was under 2 µM.

In the case of `NC(=O)CCCC(c1ccccc1)c1nc(-c2cn(Cc3ccc(C(F)(F)F)cc3F)c3ccccc3c2=O)no1` (stereo not shown) [Compound 99, 5-{3-[1-(2-fluoro-4-trifluoromethyl-benzyl)-4-oxo-1,4-dihydro-quinolin-3-yl]-[1,2,4]oxadiazol-5-yl}-5-phenyl-pentanoic acid amide], the IC50 under setting [1] was over 10 µM. Take `CN1CCN(c2cc3c(cc2F)c(=O)c(-c2noc(Cc4c(F)cccc4F)n2)cn3Cc2ccc(Cl)cc2)CC1` [Compound 33, 1-(4-chloro-benzyl)-3-[5-(2,6-difluoro-benzyl)-[1,2,4]oxadiazol-3-yl]-6-fluoro-7-(4-methyl-piperazin-1-yl)-1H-quinolin-4-one]: under setting [1], the IC50 was under 10 µM. Take `CC(C)(c1ccc(F)cc1)c1nc(-c2cn(Cc3ccc(C(F)(F)F)cc3)c3cc(N4CCSCC4)c(F)cc3c2=O)no1` [Compound 132, 6-fluoro-3-(5-(2-(4-fluorophenyl)propan-2-yl)-1,2,4-oxadiazol-3-yl)-7-thiomorpholino-1-(4-(trifluoromethyl)benzyl)quinolin-4(1H)-one]: the concentration for half-maximal inhibition (IC50) under setting [1] is under 0.5 µM. As for `CN1CCN(c2cc3c(cc2F)c(=O)c(-c2noc(C(C)(C)c4ccccc4)n2)cn3C2(c3ccc(C(F)(F)F)cc3)CC2)CC1` [Compound 96, 6-fluoro-3-[5-(1-methyl-1-phenyl-ethyl)-[1,2,4]oxadiazol-3-yl]-7-(4-methyl-piperazin-1-yl)-1-[1-(4-trifluoromethyl-phenyl)-cyclopropyl]-1H-quinolin-4-one], under setting [1], the IC50 is under 0.5 µM. `CC(C)(c1ccc(F)cc1)c1noc(-c2cn(Cc3ccc(C(F)(F)F)cc3)c3cc(N4CCOCC4)c(F)cc3c2=O)n1` [Compound 173, 6-fluoro-3-(3-(2-(4-fluorophenyl)propan-2-yl)-1,2,4-oxadiazol-5-yl)-7-morpholino-1-(4-(trifluoromethyl)benzyl)quinolin-4(1H)-one]: under setting [1], the IC50 is over 10 µM. Regarding `O=C(O)c1cn(-c2cc3c(cc2F)c(=O)c(-c2noc(Cc4ccccc4)n2)cn3Cc2ccc(C(F)(F)F)cc2F)cn1` [Compound 104, 1-(3-(5-benzyl-1,2,4-oxadiazol-3-yl)-6-fluoro-1-(2-fluoro-4-(trifluoromethyl)benzyl)-4-oxo-1,4-dihydroquinolin-7-yl)-1H-imidazole-4-carboxylic acid], under setting [1], the IC50 was over 10 µM. In the case of `CN1CCN(c2cc3c(cc2F)c(=O)c(-c2noc(Cc4ccc(F)cc4)n2)cn3Cc2ccc(Cl)cc2F)CC1` [Compound 34, 1-(4-chloro-2-fluoro-benzyl)-6-fluoro-3-[5-(4-fluoro-benzyl)-[1,2,4]oxadiazol-3-yl]-7-(4-methyl-piperazin-1-yl)-1H-quinolin-4-one], the 50% inhibitory concentration (IC50) under setting [1] is under 2 µM. Regarding `O=c1c(-c2noc(Cc3ccccc3)n2)cn(Cc2ccc(C(F)(F)F)cc2F)c2cc(-n3ccnc3)c(F)cc12` [Compound 56, 3-(5-benzyl-[1,2,4]oxadiazol-3-yl)-6-fluoro-1-(2-fluoro-4-trifluoromethyl-benzyl)-7-imidazol-1-yl-1H-quinolin-4-one], the IC50 under setting [1] was under 2 µM.

With `COc1ccc2c(c1)c(=O)c(-c1noc(Cc3ccccc3)n1)cn2Cc1ccc(Cl)cc1` [Compound 11, 3-(5-benzyl-[1,2,4]oxadiazol-3-yl)-1-(4-chloro-benzyl)-6-methoxy-1H-quinolin-4-one], the IC50 under setting [1] is over 10 µM.
